Values of other authors as cited in patent US12400737B2, “Methods of classifying diffuse large B-cell lymphoma” (CELGENE CORPORATION, priority 2018, dated 2025).

Tests used:
[1] = system: diffuse large B-cell lymphoma (DLBCL); settings: background statement
[2] = system: acute myeloid leukemia (AML); settings: administered alone

Molecule	single-agent activity in DLBCL [1]	response in treating AML at relapse [2]
Nc1cccc2c1CN(C1CCC(=O)NC1=O)C2=O (centres unmarked) [lenalidomide, 3-(4-amino-1-oxo-1,3-dihydro-isoindol-2-yl)-piperidine-2,6-dione]	significant single-agent activity	–
CT-011: anti-PD-1 antibody, a humanized antibody	–	failed to show response
